Activity calls are given as the source filed them. The calls are words filed in the database; no cut-off is given here.

The source of these data is ChEMBL document CHEMBL4665687, “Isolation of 2-Alkyl-4-quinolones with Unusual Side Chains from a Chinese Pseudomonas aeruginosa Isolate” (J Nat Prod, 2020).

Assay [1] concerns Staphylococcus epidermidis. In words: Antibacterial activity against Staphylococcus epidermidis. The assay is classed as functional, organism-based.
The next assay deals with HeLa. The assay is described as follows: Cytotoxicity against human HeLa cells assessed as reduction in cell viability. The assay is classed as functional, cell-based.
The test system of the next assay is Staphylococcus aureus. The assay is described as follows: Antibacterial activity against Staphylococcus aureus. It counts as functional, organism-based.

For `CCCCCC/C=C/Cc1cc(=O)c2ccccc2[nH]1`, the outcome (in assay [1]; in the assay on Staphylococcus aureus) was Active. In the assay with HeLa, the outcome was inactive.

Consider `CCCCCCCc1cc(=O)c2ccccc2[nH]1`, for which the outcome (in assay [1]; in the assay on Staphylococcus aureus) was Active. Moreover, in the assay on HeLa, the result was inactive.

Consider `CC/C(C)=C/Cc1cc(=O)c2ccccc2[nH]1`, for which the result (in assay [1]; in the assay on Staphylococcus aureus) was Active. Also, the outcome in the assay with HeLa was inactive.

`CCCCCCC/C=C/c1cc(=O)c2ccccc2[nH]1`: the outcome (in assay [1]; with Staphylococcus aureus) was Active. For the same molecule, the result with HeLa was inactive.

In the case of `CCCCCC/C=C\CCCc1cc(=O)c2ccccc2n1O`, the outcome (in assay [1]; in the assay on Staphylococcus aureus) was Active. In the assay on HeLa, the result was inactive.

Consider `CCCC/C=C/CCCc1cc(=O)c2ccccc2[nH]1`, for which the outcome (in assay [1]; with Staphylococcus aureus) was Active. Further, the result with HeLa was inactive.

As to `CCCCCC/C=C\CCCc1cc(=O)c2ccccc2[nH]1`, the result (in assay [1]; in the assay with Staphylococcus aureus) was Active. The outcome with HeLa was inactive.

For the molecule `CCCC/C=C/Cc1cc(=O)c2ccccc2[nH]1`, the result (in assay [1]; in the assay on Staphylococcus aureus) was Active. In the assay on HeLa, the result was inactive.

`CCCCCCCCc1cc(=O)c2ccccc2[nH]1`: the result (in assay [1]; with Staphylococcus aureus) was Active. Also, the result in the assay with HeLa was inactive.

Take `CCCCCCCCCc1cc(=O)c2ccccc2[nH]1`: the result (in assay [1]; in the assay on Staphylococcus aureus) was Active. In addition, the result with HeLa was inactive.

`CC(C)CCCCc1cc(=O)c2ccccc2[nH]1`: the result (in assay [1]; with Staphylococcus aureus) was Active. In the assay with HeLa, the result was inactive.

Take `CCCCC/C=C/c1cc(=O)c2ccccc2[nH]1`: the outcome (in assay [1]; in the assay with Staphylococcus aureus) was Active. Also, in the assay on HeLa, the result was inactive.

With `O=c1cc(Cc2ccccc2)[nH]c2ccccc12`, the result (in assay [1]; in the assay with Staphylococcus aureus) was Active. In the assay on HeLa, the outcome was inactive.

For the molecule `CCCCCCCc1cc(O)c2ccccc2[n+]1[O-]`, the result (in assay [1]; with Staphylococcus aureus) was Active. Moreover, the outcome in the assay with HeLa was inactive.

Regarding `CS/C=C/c1cc(=O)c2ccccc2[nH]1`, the outcome (in assay [1]; in the assay with Staphylococcus aureus) was Active. In addition, in the assay with HeLa, the outcome was inactive.

Consider `CCCCCCCCC/C=C/c1cc(=O)c2ccccc2[nH]1`, for which the result (in assay [1]; with Staphylococcus aureus) was Active. Also, the result with HeLa was inactive.
